# Patent publication US5840895A, “Triazole intermediates for tricyclic benzazepine and benzothiazepine derivatives” (Meiji Seika Kabushiki Kaisha, priority 1993, dated 1998)
# Like-named read-outs stand apart in the source and are kept apart here.
# Key:
# [1] = tested on: histamine releasing reaction; test: Test of suppressing histamine releasing reaction (abdominal cavity cells of rats sensitised with anti-DNP-As serum, stimulated with DNP-As); assay type: cell-based, rat (male Wister); conditions: Rattus norvegicus; cells 10^5 cell/ml stimulated with 1 μg/ml DNP-As; test compounds 10^-5 -10^-10 M; read-out: IC50 (suppression of histamine releasing reaction)
# Experimental: Test of suppressing histamine releasing reaction
# Rat anti-dinitrophenylated ascaris protein (referred to hereinafter as DNP-As) serum was prepared according to the method described by Tada, T. and Okumura, K., J. Immun., 106 (4), 1971. Briefly, 1×10^10 of inviable pertussis and 1 mg of DNP-As were administered subcutaneously to the paw of female Brown Norway rats having a body weight of 200 g. After five days, 0.5 mg of DNP-As was further administered intramuscularly to the rear of the animals. Blood samples were taken after three days of the administration to prepare anti-serum.
# A 1 ml portion of the serum diluted four times with physiological saline was administered intraperitoneally to male Wister rats. After two days, abdominal cavity was rinsed with phosphate buffer to recover the cells within the abdominal cavity. After the cell concentration was adjusted to 10^5 cell/ml, the cells were stimulated with 1 μg/ml of DNP-As. The amount of histamine released into the supernatant was measured according to the method described by Shore, P. A., Burkhalter, A. H. and Chon, V. H. Jr., J. Pharm. Exp. Ther., 127, 182-186 (1959).
# A dose for suppressing 50% of the histamine releasing reaction, i.e., IC50 value, was calculated from the amounts of histamine released in the group treated with the test compounds in the molar concentrations (M) of 10^-5 -10^-10 and in the control group. The IC50 value as the suppressing effect of the drugs is shown in Table 6 with the IC50 value of sodium chromoglycic acid selected as the control compound.
# [2] = tested on: allergic edema reaction at paw; test: Test for suppressing immediate and delayed allergic reaction (allergic edema reaction at paw, DNP-OA); assay type: in vivo, rat (male Wister); conditions: Rattus norvegicus, oral; for inhibition in vivo at 30 mg/kg: dose: 30 mg/kg of body weight
# Experimental: Test for suppressing immediate and delayed allergic reaction
# 1×10^10 of inviable pertussis and 1 mg of dinitrophenylated ovalbumin (DNP-OA) were administered subcutaneously to the three paws except the right hind paw of male Wister rats having a body weight of 200 g. After 10 days, 5 μg of DNP-OA was further administered subcutaneously to the right hind paw of the animals to induce the allergic edema reaction at paw. The allergy suppressing effect of the test compounds was examined with reference to the edema volumes after 30 minutes and 8 hours of the induction of the allergic reaction as the immediate and delayed allergic reactions, respectively.
# […] On the other hand, only a solution of 0.25% Tween 80 was orally administered to rats as the untreated control, and 100 mg/kg of sodium chromoglycate subcutaneously or orally to rats as the positive control.
# The rate of suppressing the allergic edema reaction at paw was calculated from the following equation.
# Suppression rate of the allergic edema reaction at paw
# A is an average edema volume in the control, and
# B is an average edema volume in the drug treated group.
# [3] = 0.5 h, edema volume 30 minutes after induction, read-out: Suppressing Rate, Immediate Reaction
# [4] = edema volume 8 hours after induction, read-out: Suppressing Rate, Slow reaction
# [5] = 0.5 h, 30 minutes after induction, read-out: Suppressing Rate, Immediate Reaction
# [6] = 8 hours after induction, read-out: Suppressing Rate, Slow reaction
SMILES,IC50 [1],further results
"O=c1[nH]c2cc(CNS(=O)(=O)c3ccccc3)ccc2c(=O)c2[nH]nnc12 [Example 69, 7-(N-benzenesulfonylaminomethyl)-4(5H),10-dioxo-1H-1,2,3-triazolo [4,5-c][l]benzazepine]",3.5 nM,"inhibition in vivo at 10 mg/kg [2, 3]: 50%; inhibition in vivo at 10 mg/kg [2, 4]: 41%"
"COc1ccc(C(=O)COc2ccc3[nH]c(=O)c4nn[nH]c4c(=O)c3c2)cc1 [Example 84, 8-(4-methoxyphenacyloxy)-4(5H),10-dioxo-1H-1,2,3-triazolo[4,5-c][l]benzazepine]",3.9 nM,"inhibition in vivo at 10 mg/kg [2, 3]: 48%; inhibition in vivo at 10 mg/kg [2, 4]: 40%"
"Cc1ccc2c(=O)c3[nH]nnc3c(=O)[nH]c2c1 [Example 46, 7-methyl-4(5H),10-dioxo-1H-1,2,3-triazolo[4,5-c][l]benzazepine]",,"inhibition in vivo at 10 mg/kg [2, 3]: 64%; inhibition in vivo at 10 mg/kg [2, 4]: 68%"
"O=c1[nH]c2cc(OCCCN3CCN(Cc4ccccc4)CC3)ccc2c(=O)c2[nH]nnc12 [Example 81, 7-(3-(4-benzyl-1-piperazinyl)propoxy)-4(5H),10-dioxo-1H-1,2,3-triazolo[4,5-c][l]benzazepine]",3.8 nM,
"COc1ccccc1C(=O)COc1ccc2c(=O)c3[nH]nnc3c(=O)[nH]c2c1 [Example 73, 7-(2-methoxyphenacyloxy)-4(5H),10-dioxo-1H-1,2,3-triazolo[4,5-c][l]benzazepine]",4.8 nM,
"Cc1ccc2[nH]c(=O)c3nn[nH]c3c(=O)c2c1 [Example 5, 8-methyl-4(5H),10-dioxo-1H-1,2,3-triazolo[4,5-c][l]benzazepine]",13 nM,"inhibition in vivo at 30 mg/kg [2, 5]: 48.7%; inhibition in vivo at 30 mg/kg [2, 6]: 28.9%"
"O=C(/C=C/c1ccc2c(=O)c3[nH]nnc3c(=O)[nH]c2c1)Nc1nn[nH]n1 [Example 56, 4(5H),10-dioxo-7-(2-(N-(1H-tetrazol-5-yl)carbamoyl)-(E)-ethenyl)-1H-1,2,3-triazolo[4,5-c][l]benzazepine]",4.7 nM,
"CCc1ccc2c(=O)c3[nH]nnc3c(=O)[nH]c2c1 [Example 12, 7-ethyl-4(5H),10-dioxo-1H-1,2,3-triazolo[4,5-c][l]benzazepine]",6.2 nM,"inhibition in vivo at 10 mg/kg [2, 3]: 59%; inhibition in vivo at 10 mg/kg [2, 4]: 53%"
"COC(=O)CCc1ccc2c(=O)c3[nH]nnc3c(=O)[nH]c2c1 [Example 17, 7-(2-methoxycarbonylethyl)-4(5H),10-dioxo-1H-1,2,3-triazolo[4,5-c][l]benzazepine]",4.1 nM,
"O=C(/C=C/c1ccc2c(=O)c3[nH]nnc3c(=O)[nH]c2c1)NCc1ccccc1 [Example 53, 7-(2-(N-benzylcarbamoyl)-(E)-ethenyl)-4(5H),10-dioxo-1H-1,2,3-triazolo[4,5-c][l]benzazepine]",4.4 nM,
"O=c1[nH]c2cc(OCCCOc3ccccc3)ccc2c(=O)c2[nH]nnc12 [Example 75, 4(5H),10-dioxo-7-(3-phenoxypropoxy)-IH-1,2,3-triazolo[4,5-c][l]benzazepine]",4 nM,
"O=c1[nH]c2cc(OCC(O)CCc3ccccc3)ccc2c(=O)c2[nH]nnc12 (centres unmarked) [Example 80, 7-(2-hydroxy-4-phenylbutoxy)-4(5H),10-dioxo-1H-1,2,3-triazolo[4,5-c][l]benzazepine]",4.7 nM,
"O=c1[nH]c2cc(CNS(=O)(=O)c3ccc(F)cc3)ccc2c(=O)c2[nH]nnc12 [Example 70, 7-(N-(4-fluorobenzenesulfonyl)aminomethyl)-4(5H),10-dioxo-1H-1,2,3-triazolo[4,5-c][l]benzazepine]",6.1 nM,
"Cc1cc2[nH]c(=O)c3nn[nH]c3c(=O)c2cc1C [Example 44, 7,8-dimethyl-4(5H),10-dioxo-1H-1,2,3-triazolo[4,5-c][l]benzazepine]",8.5 nM,
"CS(=O)(=O)NCc1ccc2c(=O)c3[nH]nnc3c(=O)[nH]c2c1 [Example 68, 7-(N-methanesulfonylaminomethyl)-4(5H),10-dioxo-1H-1,2,3-triazolo[4,5-c][l]benzazepine]",3.5 nM,
"COc1ccc(C(=O)/C=C/c2ccc3c(=O)c4[nH]nnc4c(=O)[nH]c3c2)cc1 [Example 51, 7-(2-(4-methoxybenzoyl)-(E)-ethenyl)-4(5H1), 10-dioxo-1H-1,2,3-triazolo[4,5-c][l]benzazepine]",7.8 nM,

SMILES,IC50 [1],further results
"O=C(CCc1ccccc1)COc1ccc2c(=O)c3[nH]nnc3c(=O)[nH]c2c1 [Example 79, 4(5H),10-dioxo-7-(2-oxo-4-phenylbutoxy)-1H-1,2,3-triazolo[4,5-c][l]benzazepine]",3.6 nM,
"CON=Cc1ccc2c(=O)c3[nH]nnc3c(=O)[nH]c2c1 [Example 58, 7-(methoxyimino)methyl-4(5H),10-dioxo-1H-1,2,3-triazolo[4,5-c][l]benzazepine]",8.1 nM,
"COc1cc2[nH]c(=O)c3nn[nH]c3c(=O)c2cc1OC [Example 43, 7,8-dimethoxy-4(5H),10-dioxo-1H-1,2,3-triazolo[4,5-c][l]benzazepine]",1.4 nM,"inhibition in vivo at 10 mg/kg [2, 3]: 59%; inhibition in vivo at 10 mg/kg [2, 4]: 53%"
"Cc1cccc2c(=O)c3[nH]nnc3c(=O)[nH]c12 [Example 3, 6-methyl-4(5H),10-dioxo-1H-1,2,3-triazolo[4,5-c][l]benzazepine]",37 nM,"inhibition in vivo at 30 mg/kg [2, 5]: 46.6%; inhibition in vivo at 30 mg/kg [2, 6]: 24.2%"
"COC(=O)/C=C/c1ccc2c(=O)c3[nH]nnc3c(=O)[nH]c2c1 [Example 16, 7-(2-methoxycarbonyl-(E)-ethenyl)-4(5H),10-dioxo-1H-1,2,3-triazolo[4,5-c][l]benzazepine]",2.6 nM,"inhibition in vivo at 10 mg/kg [2, 3]: 79%; inhibition in vivo at 10 mg/kg [2, 4]: 80%"
"O=C(COc1ccc2c(=O)c3[nH]nnc3c(=O)[nH]c2c1)c1ccc(Cl)cc1 [Example 74, 7-(4-chlorophenacyloxy)-4(5H),10-dioxo-1H-1,2,3-triazolo[4,5-c][l]benzazepine]",4.5 nM,
"COc1ccc(C(=O)COc2ccc3c(=O)c4[nH]nnc4c(=O)[nH]c3c2)cc1 [Example 37, 7-(4-methoxyphenacyloxy)-4(5H),10-dioxo-1H-1,2,3-triazolo[4,5-c][l]benzazepine]",7.5 nM,
COC(=O)/C(C)=C/c1ccc2c(=O)c3[nH]nnc3c(=O)[nH]c2c1 [Example 50],3.6 nM,
O=C(O)/C=C/c1ccc2c(=O)c3[nH]nnc3c(=O)[nH]c2c1 [Example 18],4.5 nM,
"O=c1[nH]c2cc(C=NO)ccc2c(=O)c2[nH]nnc12 [Example 57, 7-(hydroxyimino)methyl-4(5H),10-dioxo-1H-1,2,3-triazolo[4,5-c][l]benzazepine]",2.4 nM,
"CC(=O)COc1ccc2c(=O)c3[nH]nnc3c(=O)[nH]c2c1 [Example 34, 7-acetonyloxy-4(5H),10-dioxo-1H-1,2,3-triazolo[4,5-c][l]benzazepine]",3.5 nM,
"N#CC=Cc1ccc2c(=O)c3[nH]nnc3c(=O)[nH]c2c1 (mixture of isomers) [Example 19, 3:1 mixture of 7-(2-cyano-(E)-ethenyl)-4(5H),10-dioxo-1H-1,2,3-triazolo[4,5-c][l]benzazepine and 7-(2-cyano-(Z)-ethenyl)-4(5H),10-dioxo-1H-1,2,3-triazolo[4,5-c][l]benzazepine]",4.3 nM,
"COc1ccccc1C(=O)COc1ccc2[nH]c(=O)c3nn[nH]c3c(=O)c2c1 [Example 87, 8-(2-methoxyphenacyloxy)-4(5H),10-dioxo-1H-1,2,3-triazolo[4,5-c][l]benzazepine]",7.4 nM,
"COc1cc2c(=O)c3[nH]nnc3c(=O)[nH]c2cc1C [Example 45, 8-methoxy-7-methyl-4(5H),10-dioxo-1H-1,2,3-triazolo[4,5-c][l]benzazepine]",2.9 nM,
"O=c1[nH]c2cc(OCCOc3ccccc3)ccc2c(=O)c2[nH]nnc12 [Example 78, 4(5H),10-dioxo-7-(2-phenoxyethoxy)-1H-1,2,3-triazolo[4,5-c][l]benzazepine]",3.6 nM,
"O=C(/C=C/c1ccc2c(=O)c3[nH]nnc3c(=O)[nH]c2c1)NCc1ccccn1 [Example 54, 4(5H),10-dioxo-7-(2-(N-(2-pyridylmethyl)carbamoyl)-(E)-ethenyl)-1H-1,2,3-triazolo[4,5-c][l]benzazepine]",3.6 nM,
